Reference: article PMC6219668 (Oncotarget, 2018)
Where two headings read alike, the source gives them in different places.

Test system: panel of nearly 500 cancer cell lines
Assay: Cancer Cell Line Encyclopedia profiling, 3-day CellTiter-Glo
Type: cell-based
Conditions: read-out: IC50

SMILES: CC(=O)c1c(C)c2cnc(Nc3ccc(N4CCNCC4)cn3)nc2n(C2CCCC2)c1=O [Palbociblib]
- IC50 (hcc1806 (breast)): > 8 µM
- IC50 (hcc1954 (breast)): 2.51 µM
- IC50 (hcc2935 (lung)): > 8 µM
- IC50 (hcc4006 (lung)): > 8 µM
- IC50 (hct15 (large_intestine)): > 8 µM
- IC50 (hct116 (large_intestine)): > 8 µM
- IC50 (hec1a (endometrium)): > 8 µM
- IC50 (hec1b (endometrium)): 4.96 µM
- IC50 (hec59 (endometrium)): > 8 µM
- IC50 (hec151 (endometrium)): > 8 µM
- IC50 (hec251 (endometrium)): > 8 µM
- IC50 (hec265 (endometrium)): > 8 µM
- IC50 (hel9217 (haematopoietic_and_lymphoid_tissue)): > 8 µM
- IC50 (hep3b217 (liver)): > 8 µM
- IC50 (hepg2 (liver)): > 8 µM
- IC50 (heya8 (ovary)): > 8 µM
- IC50 (hgc27 (stomach)): 1.74 µM
- IC50 (hh (haematopoietic_and_lymphoid_tissue)): > 8 µM
- IC50 (hle (liver)): > 8 µM
- IC50 (hlf (liver)): > 8 µM
- IC50 (hmc18 (breast)): > 8 µM
- IC50 (hmcb (skin)): > 8 µM
- IC50 (hos (bone)): > 8 µM
- IC50 (hpac (pancreas)): > 8 µM
- IC50 (hs229t (lung)): > 8 µM
- IC50 (hs294t (skin)): > 8 µM
- IC50 (hs578t (breast)): > 8 µM
- IC50 (hs683 (central_nervous_system)): > 8 µM
- IC50 (hs695t (skin)): > 8 µM
- IC50 (hs739t (breast)): > 8 µM
- IC50 (hs746t (stomach)): > 8 µM
- IC50 (hs766t (pancreas)): > 8 µM
- IC50 (hs840t (upper_aerodigestive_tract)): > 8 µM
- IC50 (hs852t (skin)): > 8 µM
- IC50 (hs895t (skin)): 0.446 µM
- IC50 (hs936t (skin)): > 8 µM
- IC50 (hs939t (skin)): > 8 µM
- IC50 (hs944t (skin)): > 8 µM
- IC50 (hsc2 (upper_aerodigestive_tract)): > 8 µM
- IC50 (ht29 (large_intestine)): > 8 µM
- IC50 (ht144 (skin)): > 8 µM
- IC50 (ht1080 (soft_tissue)): > 8 µM
- IC50 (ht1197 (urinary_tract)): > 8 µM
- IC50 (ht1376 (urinary_tract)): > 8 µM
- IC50 (ht (haematopoietic_and_lymphoid_tissue)): > 8 µM
- IC50 (hucct1 (biliary_tract)): > 8 µM
- IC50 (huh1 (liver)): > 8 µM
- IC50 (hupt3 (pancreas)): > 8 µM
- IC50 (hupt4 (pancreas)): > 8 µM
- IC50 (hut78 (haematopoietic_and_lymphoid_tissue)): > 8 µM
- IC50 (ialm (lung)): > 8 µM
- IC50 (igr37 (skin)): > 8 µM
- IC50 (igr39 (skin)): > 8 µM
- IC50 (igrov1 (ovary)): > 8 µM
- IC50 (imr32 (autonomic_ganglia)): > 8 µM
- IC50 (ipc298 (skin)): > 8 µM
- IC50 (istmes1 (pleura)): > 8 µM
- IC50 (istmes2 (pleura)): 0.428 µM
- IC50 (j82 (urinary_tract)): > 8 µM
- IC50 (jhh2 (liver)): > 8 µM
- IC50 (jhh4 (liver)): > 8 µM
- IC50 (jhh6 (liver)): > 8 µM
- IC50 (jhos2 (ovary)): > 8 µM
- IC50 (jhos4 (ovary)): > 8 µM
- IC50 (jm1 (haematopoietic_and_lymphoid_tissue)): > 8 µM
- IC50 (jmsu1 (urinary_tract)): > 8 µM
- IC50 (k029ax (skin)): > 8 µM
- IC50 (kals1 (central_nervous_system)): > 8 µM
- IC50 (karpas299 (haematopoietic_and_lymphoid_tissue)): 7.35 µM
- IC50 (karpas422 (haematopoietic_and_lymphoid_tissue)): > 8 µM
- IC50 (ke39 (stomach)): 3.54 µM
- IC50 (ke97 (haematopoietic_and_lymphoid_tissue)): 2.59 µM
- IC50 (kg1 (haematopoietic_and_lymphoid_tissue)): > 8 µM
- IC50 (kle (endometrium)): > 8 µM
- IC50 (kmbc2 (urinary_tract)): > 8 µM
- IC50 (kmrc1 (kidney)): > 8 µM
- IC50 (kms12bm (haematopoietic_and_lymphoid_tissue)): > 8 µM
- IC50 (kms26 (haematopoietic_and_lymphoid_tissue)): 1.67 µM
- IC50 (kns42 (central_nervous_system)): > 8 µM
- IC50 (kns60 (central_nervous_system)): > 8 µM
- IC50 (kp1n (pancreas)): > 8 µM
- IC50 (kp1nl (pancreas)): > 8 µM
- IC50 (kp2 (pancreas)): > 8 µM
- IC50 (kp3 (pancreas)): > 8 µM
- IC50 (kp4 (pancreas)): > 8 µM
- IC50 (ku812 (haematopoietic_and_lymphoid_tissue)): 6.25 µM
- IC50 (kyse30 (oesophagus)): > 8 µM
- IC50 (kyse410 (oesophagus)): > 8 µM
- IC50 (kyse520 (oesophagus)): > 8 µM
- IC50 (l33 (pancreas)): > 8 µM
- IC50 (lc1sqsf (lung)): > 8 µM
- IC50 (lclc103h (lung)): > 8 µM
- IC50 (ln18 (central_nervous_system)): > 8 µM
- IC50 (ln229 (central_nervous_system)): > 8 µM
- IC50 (lounh91 (lung)): > 8 µM
